# Measured values as given in publication PMC5154303, “Flavonol and imidazole derivatives block HPV16 E6 activities and reactivate apoptotic pathways in HPV^+ cells” (Cell Death & Disease, 2016).
# Experiments:
# Type in all cases: cell-based, human
# SiHa cells [1] = assay: Cell toxicity in SiHa cells without TRAIL (MTT); settings: overnight
# Experimental: (§1) Figure 3 (a) HPV^+ SiHa cells are resistant to TRAIL-induced apoptosis as compared with the human osteosarcoma cell line U2OS. Cells (2 × 10^4 cells per well) were seeded into a 96-well plate, allowed to incubate overnight, and then treated with the indicated concentration of TRAIL in the presence of cycloheximide (5 μg/ml). The viability of cells was measured after overnight incubation using the MTT assay; the viability of cells untreated with TRAIL was set at 100% for each group. (b) The indicated concentrations of three small molecules were added to SiHa cells, and an MTT assay was preformed after overnight incubation. The viability of cells untreated with small molecules was set as 100%. (c) The indicated concentrations of myricetin or spinacine were added 4 h prior to TRAIL (100 ng/ml) in the presence of cycloheximide (5 μg/ml) and incubated at 37 °C overnight. […] Cell viability was measured after overnight incubation using the MTT assay, and the viability of cells untreated with either myricetin or spinacine was set at 100%. […]
# (§2) The extracellular domain of human TRAIL was cloned into a pTriEx expression plasmid containing N-terminal Hisx6 tag. […] All experiments were repeated at least three times (three biological replicates, carried out on different days), with each experimental group measured in triplicate within each of these individual experiments. […]
# UMSCC 29 = assay: Sensitization to doxorubicin in HPV− HNSCC line UMSCC 29 (MTT); settings: HPV− #29, compound 0–12.5 μM, 2 μM doxorubicin
# Experimental: (§3) Figure 8 Myricetin and spinacine (5) can re-sensitize HPV^+, but not HPV^−, HNSCC cell lines to treatment with doxorubicin. Two HPV^− (UMMSCC 29 and SCC 84) and three HPV^+ (UMSCC 47, UPCI-SCC90-UP-Clone 35, and UM-SCC47-TC Clone 3) head and neck cancer cell lines (2 × 10^4 cells per well) were seeded into 96-well plates and allowed to incubate overnight, and then cells were pretreated with myricetin or spinacine (0–12.5 μM) for 4 h. In all, 2 μM of doxorubicin was added, and the cells were allowed to incubate overnight. Cell viability was measured by MTT assay, and the viability of cells untreated with small molecules was set at 100%. Experiments were performed in triplicate, and error bars indicate the S.D.
# as §2, with “tag. His-TRAIL was expressed in the E. coli BL-21 pLys strain and purified as previously described. Doxorubicin and cisplatin were purchased from Sigma. His-TRAIL, doxorubicin, and cisplatin were diluted in PBS to the desired concentration before using.” for “tag.”
# SiHa cells [2] = assay: Sensitization of SiHa cells to doxorubicin (MTT); settings: 100 μM myricetin or 50 μM spinacine 4 h prior to doxorubicin, versus negative control
# Experimental: as §1, §2
# caspase 3/7 = assay: Caspase 3/7 activity assay in SiHa cells; settings: 100 μM myricetin or 50 μM spinacine 4 h, then TRAIL 100 ng/ml + cycloheximide, 0–6 h, versus controls
# Experimental: Figure 4 Myricetin and spinacine (5) increase caspase 3/7 activity in SiHa cells following treatment with TRAIL and chemotherapy drugs. SiHa cells (2 × 10^4 cells per well) were seeded into a 96-well plate and allowed to incubate overnight and then pretreated with 100 μM of myricetin or 50 μM of spinacine for 4 h. (a) TRAIL (100 ng/ml), along with cycloheximide (5 μg/ml), (b) cisplatin (50 μM), or (c) doxorubicin (2 μM) were added respectively. Caspase 3/7 activity was measured after 0, 1.5, 3, and 6 h using the CellTiter-Glo assay. Activity at 0 h of treatment was set at 100% for each group. Experiments were performed in triplicate, and error bars indicate the S.D.
# Cells were plated into 96-well plates at a density of 2 × 10^4 cells per well and incubated overnight. Small molecules were then added and incubated at 37 °C for 4 h. TRAIL (100 ng/ml), cisplatin (50 μM), and doxorubicin (2 μM) were then added. […] Caspase 3/7 activity was measured using the flourogenic substrate CellTitier-Glo for caspase 3/7 activity (Promega, Fitchburg, WI, USA) following the manufacturer's instructions. […] After a 10-min incubation, the released fluorophore was measured using a plate-reading fluorimeter (Flx800, Bio-Tek Instrument Co., Winooski, VT, USA). […] The resulting difference was expressed as a percentage of the caspase activity of the untreated cells.
# UM-SCC47-TC-Clone 3 = assay: TRAIL-induced cell death in HPV+ HNSCC line UM-SCC47-TC-Clone 3 (MTT); settings: HPV+ 47CL3, 40 μM compound 4 h, 50 ng/ml TRAIL + cycloheximide
# Experimental: (§4) Figure 7 Myricetin and spinacine (5) can re-sensitize HPV^+, but not HPV^−, head and neck cancer cell lines to treatment with TRAIL. (a) Both HPV^− and HPV^+ HN cancer cell lines display resistance to TRAIL treatment. (b) HPV^− (UMSCC 29 and SCC 84) and (c) HPV^+ (UMSCC 47, UPCI-SCC90-UP-Clone 35, and UM-SCC47-TC-Clone 3) head and neck cancer cell lines (2 × 10^4 cells per well) were seeded into 96-well plates and allowed to incubate overnight, and then cells were pretreated with myricetin (0–200 μM) or spinacine (0–100 μM) for 4 h. […] Cell viability was measured by the MTT assay, and the viability of cells untreated with small molecules was set at 100%. Experiments were performed in triplicate, and error bars indicate the S.D.
# as §2, with “tag. His-TRAIL was expressed in the E. coli BL-21 pLys strain and purified as previously described. Doxorubicin and cisplatin were purchased from Sigma. His-TRAIL, doxorubicin, and cisplatin were diluted in PBS to the desired concentration before using.” for “tag.”
# SCC 84 = assay: Sensitization to doxorubicin in HPV− HNSCC line SCC 84 (MTT); settings: HPV− #84, compound 0–12.5 μM, 2 μM doxorubicin
# Experimental: as §3
# as §2, with “tag. His-TRAIL was expressed in the E. coli BL-21 pLys strain and purified as previously described. Doxorubicin and cisplatin were purchased from Sigma. His-TRAIL, doxorubicin, and cisplatin were diluted in PBS to the desired concentration before using.” for “tag.”
# UMSCC47 = assay: TRAIL-induced cell death in HPV+ HNSCC line UMSCC47 (MTT); settings: HPV+ #47, 40 μM compound 4 h, 50 ng/ml TRAIL + cycloheximide
# Experimental: as §4
# as §2, with “tag. His-TRAIL was expressed in the E. coli BL-21 pLys strain and purified as previously described. Doxorubicin and cisplatin were purchased from Sigma. His-TRAIL, doxorubicin, and cisplatin were diluted in PBS to the desired concentration before using.” for “tag.”
Structure (SMILES),toxicity to SiHa cells in the absence of TRAIL (SiHa cells [1]),response to doxorubicin in presence and absence of compound (UMSCC 29),sensitivity of SiHa cells to doxorubicin (SiHa cells [2]),caspase 3/7 activity in combination with TRAIL (caspase 3/7),enhancement of TRAIL-induced cell death (UM-SCC47-TC-Clone 3),response to doxorubicin in presence and absence of compound (SCC 84),enhancement of TRAIL-induced cell death (UMSCC47)
"O=C(O)C1Cc2[nH]cnc2CN1 (centres unmarked) [Spinacine (5), 4,5,6,7-tetrahydro-1H-imidazo[4,5–c]pyridine-6-carboxylic acid]",low toxicity,resistant,increased the sensitivity,increased,~60%,resistant,up to 50%
"O=c1c(O)c(-c2cc(O)c(O)c(O)c2)oc2cc(O)cc(O)c12 [Myricetin, myricetin, reference compound]",low toxicity,resistant,increased the sensitivity,increased,70%,resistant,40%
